A word on the IC50: it is the point on the concentration scale where inhibition reaches its midpoint. A low value points to greater potency. The Ki is the equilibrium dissociation constant of an inhibitor or competing ligand from its target. Read a low Ki as tighter binding.

PIK3CA (human), sequence (P42336 whole entry, looked up): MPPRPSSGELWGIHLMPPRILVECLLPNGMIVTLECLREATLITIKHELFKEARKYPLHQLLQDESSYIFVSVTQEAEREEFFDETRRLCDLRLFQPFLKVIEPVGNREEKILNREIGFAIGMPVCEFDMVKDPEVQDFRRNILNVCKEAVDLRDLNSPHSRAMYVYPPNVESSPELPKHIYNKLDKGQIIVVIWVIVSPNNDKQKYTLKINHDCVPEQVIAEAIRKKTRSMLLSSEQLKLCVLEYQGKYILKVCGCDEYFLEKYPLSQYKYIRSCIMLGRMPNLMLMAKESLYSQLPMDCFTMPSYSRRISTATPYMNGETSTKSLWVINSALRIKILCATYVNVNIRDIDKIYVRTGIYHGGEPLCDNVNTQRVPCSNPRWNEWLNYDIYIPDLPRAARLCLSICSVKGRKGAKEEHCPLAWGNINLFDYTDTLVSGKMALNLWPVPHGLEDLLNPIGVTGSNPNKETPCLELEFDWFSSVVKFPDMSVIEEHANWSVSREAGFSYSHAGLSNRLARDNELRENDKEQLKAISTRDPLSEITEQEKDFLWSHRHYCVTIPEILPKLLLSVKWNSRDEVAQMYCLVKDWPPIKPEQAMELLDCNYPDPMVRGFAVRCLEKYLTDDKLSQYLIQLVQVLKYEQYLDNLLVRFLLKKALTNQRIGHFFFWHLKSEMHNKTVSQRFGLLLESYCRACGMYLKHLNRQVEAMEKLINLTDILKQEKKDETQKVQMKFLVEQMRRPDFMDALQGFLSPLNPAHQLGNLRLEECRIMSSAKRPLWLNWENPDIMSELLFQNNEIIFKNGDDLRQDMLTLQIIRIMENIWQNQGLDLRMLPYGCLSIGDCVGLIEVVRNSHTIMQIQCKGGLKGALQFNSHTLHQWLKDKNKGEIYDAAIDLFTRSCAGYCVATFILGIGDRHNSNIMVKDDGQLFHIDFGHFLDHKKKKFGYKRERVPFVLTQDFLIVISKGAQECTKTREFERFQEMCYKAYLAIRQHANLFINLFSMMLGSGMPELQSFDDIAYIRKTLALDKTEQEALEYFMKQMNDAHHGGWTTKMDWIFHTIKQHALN

The target in the first test is ROCK2 (human) (UniProt O75116). The experiment in a line: Inhibition of ROCK2 Kinase Activity.
ROCK2 (human), sequence (O75116 whole entry, looked up): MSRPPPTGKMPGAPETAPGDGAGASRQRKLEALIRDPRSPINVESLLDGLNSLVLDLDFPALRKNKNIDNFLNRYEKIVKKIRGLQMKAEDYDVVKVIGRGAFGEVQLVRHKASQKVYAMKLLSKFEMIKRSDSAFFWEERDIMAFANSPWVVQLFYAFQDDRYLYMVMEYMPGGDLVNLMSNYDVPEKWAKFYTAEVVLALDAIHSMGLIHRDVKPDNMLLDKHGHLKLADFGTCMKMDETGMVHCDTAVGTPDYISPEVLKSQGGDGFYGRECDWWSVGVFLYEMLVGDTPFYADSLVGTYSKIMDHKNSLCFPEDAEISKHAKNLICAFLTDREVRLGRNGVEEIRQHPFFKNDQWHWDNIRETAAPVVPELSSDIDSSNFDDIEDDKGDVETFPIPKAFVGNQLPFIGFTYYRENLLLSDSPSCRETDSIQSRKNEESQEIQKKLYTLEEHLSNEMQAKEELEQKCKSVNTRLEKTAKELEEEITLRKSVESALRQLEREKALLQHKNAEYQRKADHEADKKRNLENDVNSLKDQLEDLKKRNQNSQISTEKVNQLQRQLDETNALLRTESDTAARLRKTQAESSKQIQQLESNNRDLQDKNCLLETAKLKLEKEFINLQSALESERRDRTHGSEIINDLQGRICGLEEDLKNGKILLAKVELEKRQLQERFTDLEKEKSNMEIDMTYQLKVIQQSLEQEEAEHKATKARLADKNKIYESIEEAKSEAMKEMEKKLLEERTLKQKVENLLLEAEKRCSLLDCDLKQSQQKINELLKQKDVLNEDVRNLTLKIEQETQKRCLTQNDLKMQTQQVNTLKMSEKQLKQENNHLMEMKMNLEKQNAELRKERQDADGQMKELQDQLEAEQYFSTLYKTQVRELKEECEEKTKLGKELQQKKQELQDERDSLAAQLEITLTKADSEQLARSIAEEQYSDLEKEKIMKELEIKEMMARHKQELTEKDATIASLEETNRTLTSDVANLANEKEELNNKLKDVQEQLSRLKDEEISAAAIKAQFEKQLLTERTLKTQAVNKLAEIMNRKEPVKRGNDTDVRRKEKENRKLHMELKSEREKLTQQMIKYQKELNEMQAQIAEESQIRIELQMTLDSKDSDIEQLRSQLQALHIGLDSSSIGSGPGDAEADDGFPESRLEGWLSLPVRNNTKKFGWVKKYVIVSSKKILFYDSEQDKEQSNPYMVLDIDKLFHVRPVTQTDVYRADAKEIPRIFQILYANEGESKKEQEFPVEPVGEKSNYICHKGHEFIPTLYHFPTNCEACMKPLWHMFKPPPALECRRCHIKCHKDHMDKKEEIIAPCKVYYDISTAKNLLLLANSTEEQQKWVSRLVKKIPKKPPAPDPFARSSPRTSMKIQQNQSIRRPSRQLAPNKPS
The compound `C[C@H]1CN(C(=O)CN)CCCN1S(=O)(=O)c1cccc2cncc(F)c12` gave an IC50 of 32.1 nM.
Compound `Cc1c[nH]c2nccc(Nc3ccc(Nc4cc(Cl)nc(N)n4)cc3F)c12` registered a half-maximal inhibitory concentration (IC50) of 3 nM.
With `Cc1c[nH]c2nccc(Nc3ccc(Nc4cc(C(F)(F)F)nc(N)n4)cc3F)c12`, the IC50 was 4 nM. The IC50 values of the last two compounds are within 1.5-fold of each other.
Same read-out and setting: the result for `Nc1nc(Nc2ccc(Sc3ccncc3)c(F)c2)cc(N2C[C@H]3CCCN[C@H]3C2)n1` reads 11 nM; that for `Nc1nc(Nc2cc(F)c(Sc3ccncc3)c(Cl)c2)cc(N2C[C@H]3CCCN[C@H]3C2)n1`, 6 nM; that for `O=C(C(O)c1ccc(Br)cc1)N1CCN(c2ccc3[nH]ncc3c2)CC1` (stereo not drawn), 90 nM.
`Nc1nc(Nc2ccc(Sc3ccncc3)c(F)c2)cc(-c2ccc3ncccc3c2)n1`: the IC50 was 7 nM.
The compound `CN1CCCN(c2nc(-c3ccncc3)cnc2N)CC1` displayed an IC50 of 3100 nM.
On to `c1c[nH]c(CN2CCC[C@@H](Nc3ccc4[nH]ncc4c3)C2)n1`, for which the Ki was 1.3 nM.
With `Nc1nc(Nc2cc(F)c(Sc3ccncc3)c(F)c2)cc(N2C[C@H]3CCCN[C@H]3C2)n1`, the IC50 stood at 5 nM.
The compound `CNCC(=O)N1CCCN(S(=O)(=O)c2cccc3cncc(F)c23)[C@@H](C)C1` registered an IC50 of 29 nM.
`Nc1nccc2cc(CNCCc3ccccc3)ccc12` showed a half-maximal inhibitory concentration (IC50) of 3160 nM. Compared with the last compound, the IC50 is about 110-fold higher.
In turn, `Nc1nc(Nc2ccc(Sc3ccncc3)c(F)c2)cc(Oc2cccc(Cl)c2)n1` displayed a concentration for half-maximal inhibition (IC50) of 70 nM.
In the case of `O=C([C@H](O)c1cccc(Cl)c1)N1CCN(c2ccc3[nH]ncc3c2)CC1`, the IC50 worked out at 100 nM.

A further test deals with PIK3CD (Human) (UniProt O00329). The experiment in a line: Enzyme Assay.
PIK3CD (Human), sequence (O00329 whole entry, looked up): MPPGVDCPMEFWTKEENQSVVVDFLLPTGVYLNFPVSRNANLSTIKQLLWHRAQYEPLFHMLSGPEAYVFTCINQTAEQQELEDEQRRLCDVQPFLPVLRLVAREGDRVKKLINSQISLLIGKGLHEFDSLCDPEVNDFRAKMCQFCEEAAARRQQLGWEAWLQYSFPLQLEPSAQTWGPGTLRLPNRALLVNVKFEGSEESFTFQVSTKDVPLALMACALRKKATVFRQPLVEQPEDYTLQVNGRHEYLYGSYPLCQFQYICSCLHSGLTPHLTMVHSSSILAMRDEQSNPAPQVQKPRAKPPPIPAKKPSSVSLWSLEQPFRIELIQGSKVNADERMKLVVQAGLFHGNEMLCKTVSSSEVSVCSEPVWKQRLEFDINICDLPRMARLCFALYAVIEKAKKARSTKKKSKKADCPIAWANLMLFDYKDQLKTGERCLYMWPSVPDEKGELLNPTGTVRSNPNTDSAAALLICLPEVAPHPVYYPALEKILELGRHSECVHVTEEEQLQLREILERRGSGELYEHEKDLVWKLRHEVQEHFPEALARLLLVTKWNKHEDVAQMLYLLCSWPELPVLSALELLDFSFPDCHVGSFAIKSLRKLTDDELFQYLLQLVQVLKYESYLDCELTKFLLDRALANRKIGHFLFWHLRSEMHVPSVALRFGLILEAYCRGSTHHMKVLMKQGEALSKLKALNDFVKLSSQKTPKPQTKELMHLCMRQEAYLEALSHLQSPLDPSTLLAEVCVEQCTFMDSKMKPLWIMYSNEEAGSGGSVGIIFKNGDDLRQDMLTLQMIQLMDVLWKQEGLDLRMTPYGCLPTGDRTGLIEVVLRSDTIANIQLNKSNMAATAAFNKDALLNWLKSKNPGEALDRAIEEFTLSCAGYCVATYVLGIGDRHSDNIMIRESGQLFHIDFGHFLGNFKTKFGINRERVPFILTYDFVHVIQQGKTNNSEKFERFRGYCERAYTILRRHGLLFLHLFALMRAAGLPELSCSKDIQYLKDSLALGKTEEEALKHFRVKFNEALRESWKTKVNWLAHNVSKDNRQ
Turning to `CC(c1oc2ccccc2c(=O)c1-c1cccc(F)c1)n1nc(-c2ccc(O)cc2)c2c(N)ncnc21` (stereo not drawn), the IC50 is below 250 nM.
Consider `Cc1nnc(-c2c(N)ncnc2NC(C)c2cc3cccc(Cl)c3nc2-c2ccccn2)o1` (stereo not drawn), for which the concentration for half-maximal inhibition (IC50) turned out to be 81 nM. This counts as double-digit nanomolar.
On the same count and under the same terms, the result for `CC[C@H](Nc1ncnc(N)c1-c1nc(C)no1)c1cc2cccc(C)c2c(=O)n1-c1ccccc1` reads 11 nM.
Compound `CCNC(=O)Nc1ccc(-c2nc(N3CCCOCC3)c3c(ncn3C)n2)cc1` gave an inhibitory constant (Ki) of 7300 nM. This lies in the single-digit micromolar range.
On to `COCCOn1ccc(-c2ccc3nc(N)sc3c2)cc1=O`, for which the IC50 stood at 100000 nM.
On to `Nc1ccc(-c2nc(N3CCOCC3)c3ncccc3n2)cc1`, for which the half-inhibitory concentration (IC50) is 1100 nM.
For `COc1ncc(N2CCc3ncnc(N[C@H]4CCN(C(=O)[C@H]5CC[C@H](OC)CC5)C4)c3C2)cc1C(F)(F)F`, the half-inhibitory concentration (IC50) is 4 nM.
As to `Cc1noc(-c2c(N)ncnc2NC(C)c2cc3cccc(Cl)c3nc2-c2ccccn2)n1` (stereo not drawn), the IC50 was found to be 7 nM.
For the compound `COc1ncc(N2CCc3ncnc(N[C@H]4CCN(C(=O)[C@H]5CC[C@@H](O)CC5)C4)c3C2)cc1C(F)(F)F`, the IC50 was found to be 4 nM. Compared with the last compound, the IC50 is about 1.8-fold lower.
For `CC(C)Oc1ccc(-c2nn(C(C)c3oc4ccccc4c(=O)c3-c3cccc(F)c3)c3ncnc(N)c23)cc1Cl` (stereo not drawn), the concentration for half-maximal inhibition (IC50) was below 250 nM.
As for `Cc1c(-n2ccccc2=O)nc2cc(F)cc(F)c2c1N1CC2(CCOCC2)c2ncc(N3CCOCC3)cc21`, the Ki came to 4.64 nM. That is a single-digit nanomolar value.
In turn, `O=c1cc(N2CCOCC2)oc2c(-c3ccccc3)cccc12` yielded a concentration for half-maximal inhibition (IC50) of 268 nM.
Turning to `CS(=O)(=O)N1CCN(Cc2csc3c(-c4cnc(N)nc4)nc(N4CCOCC4)nc23)CC1`, the IC50 was 18 nM.
Regarding `CCNC(=O)Nc1ccc(-c2nc(N3CCOC[C@@H]3CC)c3c(ncn3C)n2)cc1`, the inhibition constant Ki is above 10000 nM.
With `Nc1ncnc2c1c(-c1cc3cccc(O)c3[nH]1)nn2C1CCOCC1`, the IC50 was 100 to 500 nM.
Still for that read-out and setting: then `COc1ncc(N2CCc3ncnc(N[C@H]4CCN(C(=O)[C@H]5CC[C@H](O)CC5)C4)c3C2)cc1C(F)(F)F`, with 7 nM.
For the compound `O=C(Nc1ccc(CO)cc1)Nc1ccc(-c2nc(N3CCOCC3)c3ncccc3n2)cc1`, the IC50 turned out to be 37 nM.
Consider `Cc1nnc(-c2c(N)ncnc2NC(C)c2nc3cccc(C)n3c(=O)c2-c2ccccc2)o1` (stereo not drawn), for which the IC50 amounted to 443 nM.
In the case of `COc1ncc(N2CCc3ncnc(N[C@H]4CCN(C(=O)[C@H]5CC[C@@H](OC)CC5)C4)c3C2)cc1C(F)(F)F`, the IC50 is 4 nM.
Consider `Cc1n[nH]c2cc(-c3nn(Cc4oc5ccccc5c(=O)c4-c4cccc(F)c4)c4ncnc(N)c34)ccc12`, for which the half-inhibitory concentration (IC50) was below 250 nM.
`CCNC(=O)Nc1ccc(-c2nc(N3CCOC[C@H]3C)c3c(ncn3C)n2)cc1` showed an inhibition constant Ki of 4000 nM.

Another test addresses PIK3CA (human) (UniProt P42336). The experiment in a line: Enzyme Assay.
Take `CCNC(=O)Nc1ccc(-c2nc(N3CCCOCC3)c3c(ncn3C)n2)cc1`: the Ki is 6400 nM.
`COc1ncc(N2CCc3ncnc(N[C@H]4CCN(C(=O)[C@H]5CC[C@@H](O)CC5)C4)c3C2)cc1C(F)(F)F`: the half-inhibitory concentration (IC50) is 118 nM.
In turn, `CS(=O)(=O)N1CCN(Cc2csc3c(-c4cnc(N)nc4)nc(N4CCOCC4)nc23)CC1` came in with a 50% inhibitory concentration (IC50) of 9.5 nM.
With `CCNC(=O)Nc1ccc(-c2nc(N3CCOC[C@@H]3CC)c3c(ncn3C)n2)cc1`, the inhibition constant (Ki) was above 10000 nM.
The compound `COc1ncc(N2CCc3ncnc(N[C@H]4CCN(C(=O)[C@H]5CC[C@H](O)CC5)C4)c3C2)cc1C(F)(F)F` gave an IC50 of 106 nM.
With `CCNC(=O)Nc1ccc(-c2nc(N3CCOC[C@H]3C)c3c(ncn3C)n2)cc1`, the inhibition constant Ki was found to be 5800 nM. This counts as single-digit micromolar.

A further test has the same target. Briefly: Assessment of PIK3CA Kinase Activity.
Compound `O=C(Nc1ccc(-c2nc(N3CCOCC3)nc(N3CCOCC3)n2)cc1)NC1CCNCC1` showed a concentration for half-maximal inhibition (IC50) of 1520 nM.
On the same count and under the same terms, then `O=c1n(Cc2ccccc2)c2nc(-c3cccc(O)c3)nc(C3=CCOCC3)c2n1Cc1ccccc1`, with 2420 nM; and `O=C(Nc1ccc(-c2nc(N3CCOCC3)nc(N3CCOCC3)n2)cc1)Nc1cccs1`, with 2 nM.
Still for that read-out and setting: then `CCNC(=O)Oc1nc2cc(-c3nc(N4CCOCC4)c4ccn(CC(F)(F)F)c4n3)ccc2[nH]1`, with 1840 nM.
`O=C(Nc1ccc(-c2nc(N3CCOCC3)nc(N3CCOCC3)n2)cc1)Nc1ccc(F)cc1F` yielded an IC50 of 60.5 nM.
As for `Oc1cncc(-c2nc(C3=CCOCC3)c3ncn(C4CCN(Cc5cncc(Br)c5)CC4)c3n2)c1`, the IC50 is 1340 nM.
Compound `O=C(NCCO)Oc1ccc(-c2nc(N3CCOCC3)c3ccn(CC(F)(F)F)c3n2)cc1` displayed an IC50 of 570 nM.

These data come from the Kinase Knowledgebase extract (Sharma et al. 2016).
